Source: paper PMC11062899, “De novo development of small cyclic peptides that are orally bioavailable” (Nature Chemical Biology, 2023)
Several values for one entry are separate records, joined by “and”; a condition that tells them apart may be missing. Equal entries are not always repeated.

Experiments:
human α-thrombin = human α-thrombin (Homo sapiens, UniProt P00734); experiment: Protease inhibition, Ki for human α-thrombin (fluorogenic substrate Z-Gly-Gly-Arg-AMC); type: biochemical; conditions: replicates R1-R3
Summary of the method: (§1)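 Ki values come from Cheng–Prusoff correction of IC50, itself fitted by four-parameter logistic regression of activity versus a no-peptide control. Assays used 2 nM human or 3 nM rat thrombin, 50 μM Z-Gly-Gly-Arg-AMC, 30 min kinetic fluorescence at 25 °C.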

rat α-thrombin = target: T1, rat α-thrombin (Rattus norvegicus, UniProt P18292); experiment: Protease inhibition, Ki for rat α-thrombin (fluorogenic substrate Z-Gly-Gly-Arg-AMC); type: biochemical; conditions: replicates R1-R3
T1 construct: rat α-thrombin (Molecular Innovations) were used at final concentrations of 2 nM and 3 nM; purchased Molecular Innovations
Summary of the method: as §1

porcine pepsin = target: T2, porcine pepsin (Sus scrofa, UniProt P00791); experiment: Peptide stability in simulated gastric fluid (SGF); type: in vitro ADME; conditions: for SGF stability, Residual peptide Average / SGF stability, Residual peptide: after 8 h vs 0 h (TIC); for SGF stability, Residual peptide Average: average of R1-R3; for SGF stability, Residual peptide: single replicates R1-R3; for remaining at 8 h: simulated gi fluid, 37 °C, pH 1.2, read-out: Proteolytic stability: SGF (8 h) % remaining
T2 construct: 0.32 g of porcine pepsin (Sigma-Aldrich, P7125) was dissolved under gentle agitation; purchased Sigma-Aldrich P7125
T2 sequence (P00791 60-385): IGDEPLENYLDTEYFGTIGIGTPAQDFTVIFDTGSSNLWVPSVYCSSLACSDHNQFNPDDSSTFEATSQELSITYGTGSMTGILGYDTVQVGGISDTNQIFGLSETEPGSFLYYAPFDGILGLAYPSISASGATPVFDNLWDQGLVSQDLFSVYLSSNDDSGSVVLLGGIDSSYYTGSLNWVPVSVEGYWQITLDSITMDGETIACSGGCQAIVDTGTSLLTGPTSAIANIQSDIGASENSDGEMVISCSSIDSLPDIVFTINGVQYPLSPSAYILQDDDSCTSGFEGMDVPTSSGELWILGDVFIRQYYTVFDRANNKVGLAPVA
Protocol: (§2) Simulated gastric and intestinal fluids were prepared according to the States Pharmacopeia specifications (Test Solutions, United States Pharmacopeia 35, NF 30, 2012). SGF: 0.2 g of sodium chloride was dissolved in 50 ml of water, and the pH was adjusted to 1.2 by addition of 0.7 ml of 10 M hydrochloric acid. Then, 0.32 g of porcine pepsin (Sigma-Aldrich, P7125) was dissolved under gentle agitation, and the volume was filled up to 100 ml with Milli-Q water. SIF: 0.68 g of monobasic potassium phosphate was dissolved in 25 ml of Milli-Q water, and the pH was adjusted to 6.8 by adding 7.7 ml of a 0.2 M sodium hydroxide solution. Next, 1 g of porcine pancreatin (Sigma-Aldrich, P3292) was added under gentle agitation, and the volume was adjusted to 100 ml with Milli-Q water to afford a fine suspension. To test the stability in simulated gastrointestinal fluids, 396 μl of SGF or SIF was pre-heated at 37 °C for 10 min, and 4 μl of a 1 mM peptide solution in DMSO was added. […] Supernatant was analyzed by LC–MS to measure the peptide concentrations at the different timepoints. Residual peptide was calculated by normalizing the concentrations measured at T1 to T0.

[1] = Peptide stability in simulated intestinal fluid (SIF); type: in vitro ADME, porcine; conditions: simulated gi fluid; 8 h, 37 °C, pH 6.8; read-out: Proteolytic stability: SIF (8 h) % remaining
Protocol: as §2

porcine pancreatin = experiment: as above; type: in vitro ADME; conditions: after 8 h vs 0 h (TIC); for SIF stability, Residual peptide Average: average of R1-R3; for SIF stability, Residual peptide: single replicates R1-R3
Protocol: as §2

[2] = Passive artificial membrane permeability (PAMPA); conditions: for PAMPA permeability: % permeability: 50 μM, 12–18 h, acceptor concentration relative to equilibrium; for Papp at 50 μM / Permeability% Average / Permeability% R1 / Permeability% R3: PAMPA; for Papp at 50 μM: pH 7.4; for Permeability% Average: average of R1-R3; for Permeability% R1: replicate R1; for Permeability% R1 / Permeability% R3: TIC of top well sample relative to sample at theoretical equilibrium; for Permeability% R3: replicate R3
[3] = Metabolic stability in rat liver microsomes (RLMs); conditions: rat, microsomes
[4] = peptide 1.33E+02 uM, slope of proteolytic substrate cleavage over time
[5] = CL (ul/min/mg protein) R1, RLM CL, replicate R1
[6] = CL (ul/min/mg protein) R2, RLM CL, replicate R2
[7] = CL (ul/min/mg protein) R3, RLM CL, replicate R3
[8] = Half Life (min) R1, RLM metabolic stability, replicate R1, 0-60 min
[9] = Half Life (min) R2, RLM metabolic stability, replicate R2, 0-60 min
[10] = Half Life (min) R3, RLM metabolic stability, replicate R3, 0-60 min
[11] = Metabolic stability: Half life T1/2 (min), RLMs, mean and SD, three measurements
[12] = Metabolic stability: RLM CL (ul/min/mg), RLMs, mean and SD, three measurements

## C[C@@H]1NC(=O)[C@@H](NC(=O)c2ccc(Cl)s2)CSCc2cccc(n2)CSCCNC(=O)c2ccc(cc2)CNC1=O [compound 26]
Human α-thrombin; peptide 1.02E-03 uM
  Human alpha thrombin inhibition, slope normalized to DMSO: 99.9 and 93.8 and 93.5
Human α-thrombin; peptide 1.04E+00 uM
  Human alpha thrombin inhibition, slope normalized to DMSO: 74.0 and 69.6 and 63.3
Human α-thrombin; peptide 1.27E-04 uM
  Human alpha thrombin inhibition, slope normalized to DMSO: 95.9 and 97.1 and 89.9
Human α-thrombin; peptide 1.30E-01 uM
  Human alpha thrombin inhibition, slope normalized to DMSO: 97.4 and 88.7 and 84.7
Human α-thrombin; [4]
  Human alpha thrombin inhibition, slope normalized to DMSO: 48.0 and 48.9 and 38.9
Human α-thrombin; peptide 1.63E-02 uM
  Human alpha thrombin inhibition, slope normalized to DMSO: 100.4 and 97.8 and 90.3
Human α-thrombin; peptide 1.67E+01 uM
  Human alpha thrombin inhibition, slope normalized to DMSO: 53.6 and 73.4 and 36.5
Human α-thrombin; peptide 2.03E-03 uM
  Human alpha thrombin inhibition, slope normalized to DMSO: 104.9 and 96.2 and 90.3
Human α-thrombin; peptide 2.08E+00 uM
  Human alpha thrombin inhibition, slope normalized to DMSO: 55.5 and 68.9 and 56.1
Human α-thrombin; peptide 2.54E-04 uM
  Human alpha thrombin inhibition, slope normalized to DMSO: 98.8 and 99.4 and 90.5
Human α-thrombin; peptide 2.60E-01 uM
  Human alpha thrombin inhibition, slope normalized to DMSO: 80.8 and 89.0 and 86.0
Human α-thrombin; peptide 3.18E-05 uM
  Human alpha thrombin inhibition, slope normalized to DMSO: 84.7 and 96.5 and 92.2
Human α-thrombin; peptide 3.26E-02 uM
  Human alpha thrombin inhibition, slope normalized to DMSO: 93.0 and 90.7 and 88.1
Human α-thrombin; peptide 3.33E+01 uM
  Human alpha thrombin inhibition, slope normalized to DMSO: 66.3 and 62.6 and 52.3
Human α-thrombin; peptide 4.07E-03 uM
  Human alpha thrombin inhibition, slope normalized to DMSO: 103.1 and 97.8 and 89.7
Human α-thrombin; peptide 4.17E+00 uM
  Human alpha thrombin inhibition, slope normalized to DMSO: 60.4 and 78.0 and 53.8
Human α-thrombin; peptide 5.09E-04 uM
  Human alpha thrombin inhibition, slope normalized to DMSO: 103.6 and 97.9 and 97.0
Human α-thrombin; peptide 5.21E-01 uM
  Human alpha thrombin inhibition, slope normalized to DMSO: 81.6 and 82.6 and 73.0
Human α-thrombin; peptide 6.36E-05 uM
  Human alpha thrombin inhibition, slope normalized to DMSO: 100.1 and 99.2 and 93.6
Human α-thrombin; peptide 6.51E-02 uM
  Human alpha thrombin inhibition, slope normalized to DMSO: 92.5 and 99.9 and 84.8
Human α-thrombin; peptide 6.67E+01 uM
  Human alpha thrombin inhibition, slope normalized to DMSO: 54.4 and 57.2 and 52.4
Human α-thrombin; peptide 8.14E-03 uM
  Human alpha thrombin inhibition, slope normalized to DMSO: 104.4 and 96.4 and 91.9
Human α-thrombin; peptide 8.33E+00 uM
  Human alpha thrombin inhibition, slope normalized to DMSO: 36.8 and 64.2 and 38.3
Rat α-thrombin; [4]
  Rat alpha thrombin inhibition, slope normalized to DMSO: 14.8 and 14.9 and 15.8
Rat α-thrombin; peptide 1.67E+01 uM
  Rat alpha thrombin inhibition, slope normalized to DMSO: 13.6 and 25.5 and 34.3
Rat α-thrombin; peptide 2.08E+00 uM
  Rat alpha thrombin inhibition, slope normalized to DMSO: 26.5 and 27.8 and 27.7
Rat α-thrombin; peptide 3.33E+01 uM
  Rat alpha thrombin inhibition, slope normalized to DMSO: 22.7 and 27.1 and 25.7
Rat α-thrombin; peptide 4.17E+00 uM
  Rat alpha thrombin inhibition, slope normalized to DMSO: 20.6 (2×) and 20.4
Rat α-thrombin; peptide 6.67E+01 uM
  Rat alpha thrombin inhibition, slope normalized to DMSO: 19.9 and 22.5 and 21.1
Rat α-thrombin; peptide 8.33E+00 uM
  Rat alpha thrombin inhibition, slope normalized to DMSO: 13.5 and 20.1 and 24.1
Porcine pepsin
  SGF stability, Residual peptide Average: 97.08
  SGF stability, Residual peptide: 97.29 and 98.54 and 95.42
  remaining at 8 h: 97 ± 2%
[1]
  remaining at 8 h: 88 ± 5%
Porcine pancreatin
  SIF stability, Residual peptide Average: 88.29
  SIF stability, Residual peptide: 90.18 and 82.19 and 92.51
[2]
  PAMPA permeability: % permeability: 4.3 ± 1.6%
  Papp at 50 μM: 0.275 ×10⁻⁶ cm/s
  Permeability% Average: 4.3%
  Permeability% R1: 2.49%
  Permeability% R3: 5.45%
[3]; [5]
  microsomal CLint: 73.3 µL/min/mg
[3]; [6]
  microsomal CLint: 121 µL/min/mg
[3]; [7]
  microsomal CLint: 129 µL/min/mg
[3]; [8]
  half-life: 18.9 min
[3]; [9]
  half-life: 11.4 min
[3]; [10]
  half-life: 10.8 min
[3]; [11]
  half-life: 13.7 ± 3.7 min
[3]; [12]
  microsomal CLint: 108 ± 25 µL/min/mg

## O=C1NCCSCc2cccc(n2)CSCCC(=O)N2CCC[C@H]2C(=O)N2CCN(C(=O)c3ccc(Cl)s3)CC12 (some centres unmarked) [compound 23]
Human α-thrombin; peptide 1.02E-03 uM
  Human alpha thrombin inhibition, slope normalized to DMSO: 91.9 and 90.1 and 93.2
Human α-thrombin; peptide 1.04E+00 uM
  Human alpha thrombin inhibition, slope normalized to DMSO: 79.8 and 81.1 and 79.3
Human α-thrombin; peptide 1.27E-04 uM
  Human alpha thrombin inhibition, slope normalized to DMSO: 96.4 and 91.3 and 88.2
Human α-thrombin; peptide 1.30E-01 uM
  Human alpha thrombin inhibition, slope normalized to DMSO: 96.0 and 91.0 and 92.0
Human α-thrombin; [4]
  Human alpha thrombin inhibition, slope normalized to DMSO: 8.4 and 8.5 and -2.6
Human α-thrombin; peptide 1.63E-02 uM
  Human alpha thrombin inhibition, slope normalized to DMSO: 97.2 and 84.3 and 96.8
Human α-thrombin; peptide 1.67E+01 uM
  Human alpha thrombin inhibition, slope normalized to DMSO: 30.4 and 33.6 and 42.3
Human α-thrombin; peptide 2.03E-03 uM
  Human alpha thrombin inhibition, slope normalized to DMSO: 97.8 and 93.0 and 96.6
Human α-thrombin; peptide 2.08E+00 uM
  Human alpha thrombin inhibition, slope normalized to DMSO: 73.0 and 70.9 and 73.9
Human α-thrombin; peptide 2.54E-04 uM
  Human alpha thrombin inhibition, slope normalized to DMSO: 99.0 and 94.8 and 97.2
Human α-thrombin; peptide 2.60E-01 uM
  Human alpha thrombin inhibition, slope normalized to DMSO: 91.4 and 88.4 and 89.4
Human α-thrombin; peptide 3.18E-05 uM
  Human alpha thrombin inhibition, slope normalized to DMSO: 91.8 and 117.4 and 98.4
Human α-thrombin; peptide 3.26E-02 uM
  Human alpha thrombin inhibition, slope normalized to DMSO: 94.8 and 91.6 and 96.2
Human α-thrombin; peptide 3.33E+01 uM
  Human alpha thrombin inhibition, slope normalized to DMSO: 18.0 and 18.8 and 20.4
Human α-thrombin; peptide 4.07E-03 uM
  Human alpha thrombin inhibition, slope normalized to DMSO: 93.4 and 91.5 and 94.8
Human α-thrombin; peptide 4.17E+00 uM
  Human alpha thrombin inhibition, slope normalized to DMSO: 59.5 and 58.3 and 61.9
Human α-thrombin; peptide 5.09E-04 uM
  Human alpha thrombin inhibition, slope normalized to DMSO: 97.5 and 92.8 and 99.8
Human α-thrombin; peptide 5.21E-01 uM
  Human alpha thrombin inhibition, slope normalized to DMSO: 87.6 and 85.1 and 86.8
Human α-thrombin; peptide 6.36E-05 uM
  Human alpha thrombin inhibition, slope normalized to DMSO: 100.5 and 90.1 and 98.6
Human α-thrombin; peptide 6.51E-02 uM
  Human alpha thrombin inhibition, slope normalized to DMSO: 92.5 and 91.3 and 93.7
Human α-thrombin; peptide 6.67E+01 uM
  Human alpha thrombin inhibition, slope normalized to DMSO: 11.3 and 18.5 and 12.0
Human α-thrombin; peptide 8.14E-03 uM
  Human alpha thrombin inhibition, slope normalized to DMSO: 94.9 and 92.1 and 95.9
Human α-thrombin; peptide 8.33E+00 uM
  Human alpha thrombin inhibition, slope normalized to DMSO: 50.4 and 48.8 and 50.8
Rat α-thrombin; [4]
  Rat alpha thrombin inhibition, slope normalized to DMSO: 2.4 and 2.8 and 19.0
Rat α-thrombin; peptide 1.67E+01 uM
  Rat alpha thrombin inhibition, slope normalized to DMSO: 12.7 and 12.2 and 32.4
Rat α-thrombin; peptide 2.08E+00 uM
  Rat alpha thrombin inhibition, slope normalized to DMSO: 50.5 and 50.4 and 69.3
Rat α-thrombin; peptide 3.33E+01 uM
  Rat alpha thrombin inhibition, slope normalized to DMSO: 7.4 and 6.9 and 24.6
Rat α-thrombin; peptide 4.17E+00 uM
  Rat alpha thrombin inhibition, slope normalized to DMSO: 35.4 and 36.2 and 53.3
Rat α-thrombin; peptide 6.67E+01 uM
  Rat alpha thrombin inhibition, slope normalized to DMSO: 5.7 and 4.4 and 22.7
Rat α-thrombin; peptide 8.33E+00 uM
  Rat alpha thrombin inhibition, slope normalized to DMSO: 23.3 and 24.4 and 38.9
Porcine pepsin
  SGF stability, Residual peptide Average: 98.66
  SGF stability, Residual peptide: 100.45 and 94.90 and 100.63
  remaining at 8 h: 99 ± 3%
[1]
  remaining at 8 h: 91 ± 9%
Porcine pancreatin
  SIF stability, Residual peptide Average: 91.31
  SIF stability, Residual peptide: 90.99 and 82.41 and 100.52
[2]
  PAMPA permeability: % permeability: 63 ± 5%
  Papp at 50 μM: 6.46 ×10⁻⁶ cm/s
  Permeability% Average: 62.6%
  Permeability% R1: 59.23%
  Permeability% R3: 59.76%
[3]; [5]
  microsomal CLint: 73.8 µL/min/mg
[3]; [6]
  microsomal CLint: 70.2 µL/min/mg
[3]; [7]
  microsomal CLint: 77.1 µL/min/mg
[3]; [8]
  half-life: 18.8 min
[3]; [9]
  half-life: 19.7 min
[3]; [10]
  half-life: 18 min
[3]; [11]
  half-life: 18.8 ± 0.7 min
[3]; [12]
  microsomal CLint: 74 ± 3 µL/min/mg
